Data set [1] concerns the target T1, Replicase polyprotein 1ab (Severe acute respiratory syndrome coronavirus 2, UniProt P0DTD1). Nature of the data set: Inhibition of SARS-CoV-2 3CL protease by FRET assay.
Data set [2] concerns the target T1, Replicase polyprotein 1ab. Nature of the data set: Inhibition of N-terminal 6His-tagges SARS-CoV-2 PLpro Wuhan (1524 to 1883 residues) expressed in Escherichia coli BL21(DE3) using Arg-Leu-Arg-Gly-Gly-AMC as substrate preincubated for 5 mins followed by substrate addition measured after 6 mins by fluorescence based assay.
The next data set has as its system Human coronavirus 229E. Nature of the data set: Antiviral activity against HCoV-229E infected in human Huh-7 cells assessed as reduction in viral replication. The format is functional, organism-based.
Data set [3] deals with T1, Replicase polyprotein 1ab. Nature of the data set: Inhibition of C-terminal SARS-CoV-2 Main protease expressed in Escherichia coli using ALNDFSNSGSDVLYQPPQTSITSAVLQ/SGFRKMAFPS-NH2 as substrate preincubated for 5 mins followed by compound addition and measured after 20 mins by FRET analysis.
Data set [4] has as its target T1, Replicase polyprotein 1ab. Nature of the data set: Inhibition of His-tagged SARS-CoV-2 Main protease BetaCoV/Wuhan/WIV04/2019 expressed in Escherichia coli BL21 (DE3) using Dabcyl-KTSAVLQ/SGFRKME(Edan) as substrate followed by compound addition by FRET assay.
In data set [5] the test system is SARS-CoV-2. Nature of the data set: Antiviral activity against SARS-CoV-2 USA-WA1/2020 infected in Vero E6 cells assessed as reduction in viral replication incubated for 3 days by viral plaque assay. The format is functional, organism-based. Particulars: Severe acute respiratory syndrome coronavirus 2, USA-WA1/2020, Vero C1008, 72 h.
Data set [6] can be described thus: Clearance in CD1 mouse at 5 mg/kg, ip. The format is ADME, organism-based. To be noted: in vivo.
Data set [7] has as its target T1, Replicase polyprotein 1ab. Nature of the data set: Binding affinity to N-terminal full length SARS-CoV-2 Main protease assessed as inhibition constant.
Data set [8] concerns the target T1, Replicase polyprotein 1ab.
Data set [9] can be described thus: Half life in Sprague-Dawley rat at 20 mg/kg, ip by LC-MS/MS analysis. The format is ADME, organism-based. Particulars: in vivo.
The nature of data set [10]: Oral bioavailability in Sprague-Dawley rat at 20 mg/kg by LC-MS/MS analysis. The format is ADME, organism-based. Particulars: in vivo.
Data set [11] in a line: Clearance in Sprague-Dawley rat at 20 mg/kg, ip by LC-MS/MS analysis. The format is ADME, organism-based. Particulars: in vivo.
In data set [12] the target is T1, Replicase polyprotein 1ab. Nature of the data set: Inhibition of full length GST-tagged SARS-CoV-2 Main protease expressed in Escherichia coli.
The target of data set [13] is Replicase polyprotein 1ab (Severe acute respiratory syndrome-related coronavirus, UniProt P0C6X7). Nature of the data set: Inhibition of recombinant SARS-CoV-1 Main protease.
Data set [14] in a line: Inhibition of MERS-CoV Main protease. Set-up: species or system Middle East respiratory syndrome-related coronavirus.
Data set [15] deals with SARS-CoV-2. Nature of the data set: Antiviral activity against SARS-CoV-2 infected in Vero E6 cells assessed as reduction in viral replication measured after 48 hrs by qRT-PCR assay. The format is functional, organism-based. Particulars: Severe acute respiratory syndrome coronavirus 2, Vero C1008, 48 h.
Data set [16] addresses T1, Replicase polyprotein 1ab. Nature of the data set: Inhibition of N-terminal His6-tagged recombinant full length SARS-CoV-2 3CLpro expressed in Escherichia coli BL21(DE3) using (KTSAVLQSGFRKME) as fluorogenic substrate preincubated with compound for 10 mins followed by substrate addition by FRET assay.
Data set [17] in a line: Clearance in Sprague-Dawley rat at 20 mg/kg, iv by LC-MS/MS analysis. The format is ADME, organism-based. Particulars: in vivo.
Data set [18] can be described thus: Half life in Sprague-Dawley rat at 20 mg/kg, po by LC-MS/MS analysis. The format is ADME, organism-based. To be noted: in vivo.
Data set [19] has as its target T1, Replicase polyprotein 1ab. Nature of the data set: Inhibition of N-terminal GST-tagged SARS-CoV-2 Main protease expressed in Escherichia coli BL21 (DE3) incubated for 10 mins by FRET analysis.
For data set [20], the system named is SARS-CoV-2. The format is functional, organism-based. To be noted: Severe acute respiratory syndrome coronavirus 2, Vero C1008.
For data set [21], the system named is SARS-CoV-2. The format is functional, organism-based. Particulars: Severe acute respiratory syndrome coronavirus 2, 2019BetaCoV/Wuhan/WIV04/2019, Vero C1008, 48 h.
Data set [22] concerns the target T1, Replicase polyprotein 1ab. Nature of the data set: Inhibition of N-terminal GST-tagged SARS-CoV-2 Main protease expressed in Escherichia coli BL21 (DE3) using DABCYL-KTSAVLQSGFRKME-EDANS as fluorogenic substrate preincubated for 10 mins followed by compound addition and measured after 1 hr by FRET assay.

Each structure is given as a SMILES string.

21 compounds from ChEMBL document CHEMBL5335779, “The research progress of SARS-CoV-2 main protease inhibitors from 2020 to 2022” (Eur J Med Chem, 2023) can be followed below.

In general, IC50 refers to the point on the concentration scale where inhibition reaches its midpoint. Regarding `CCCCCCCCCC(=O)N[C@H]1[C@H](Oc2c3cc4cc2Oc2ccc(cc2Cl)[C@@H](O[C@@H]2O[C@H](CO)[C@@H](O)[C@H](O)[C@H]2NC(C)=O)[C@@H]2NC(=O)[C@H](NC(=O)[C@@H]4NC(=O)[C@H]4NC(=O)[C@H](Cc5ccc(c(Cl)c5)O3)NC(=O)[C@H](N)c3ccc(O)c(c3)Oc3cc(O)cc4c3)c3ccc(O)c(c3)-c3c(O[C@H]4O[C@H](CO)[C@@H](O)[C@H](O)[C@@H]4O)cc(O)cc3[C@@H](C(=O)O)NC2=O)O[C@H](CO)[C@@H](O)[C@@H]1O` [TEICOPLANIN A2-3], the IC50 in data set [1] was 1500 nM.
For the compound `C[C@H](NC(=O)OCc1ccccc1)C(=O)N[C@@H](C)C(=O)NN(CC(N)=O)C(=O)/C=C/C(=O)c1ccccc1`, the IC50 in data set [2] was found to be 490 nM.
Take `CC(C)(C)[C@H](NC(=O)C(F)(F)F)C(=O)N1C[C@H]2[C@@H]([C@H]1C(=O)N[C@@H](C[C@@H]1CCNC1=O)C(=O)c1nc3ccccc3s1)C2(C)C`: in the data set with Human coronavirus 229E, the 50% inhibitory concentration (IC50) was 24 nM.
In [3], `CC1(C)[C@H](C(=O)OCc2ccc([N+](=O)[O-])cc2)C2C(=O)C(Br)(Br)[C@H]2[S+]1[O-]` (some centres not stated) had an IC50 of 500 nM.
Same read-out and setting: then `CC1(C)[C@H](C(=O)OCc2ccccc2)C2C(=O)C(Br)(Br)[C@H]2S1(=O)=O` (some centres not stated), with 700 nM.
Broadly, the EC50 is the concentration giving half of the maximal effect. For `O=C(N[C@@H](CC1CC1)C(=O)N[C@@H](C[C@@H]1CCNC1=O)C(O)S(=O)(=O)O)OCc1cccc(F)c1` (some centres not stated), in data set [4], the half-inhibitory concentration (IC50) was found to be 70 nM. Besides, in the data set on SARS-CoV-2 [5], the EC50 turned out to be 570 nM.
In general, CL/F refers to clearance divided by bioavailability, as obtained after extravascular dosing. Consider `O=C[C@H](C[C@@H]1CCNC1=O)NC(=O)[C@H](CC1CCCCC1)NC(=O)c1cc2ccccc2[nH]1`, for which the CL/F in data set [6] was 17.4 mL/min/kg.
Usually Ki stands for the dissociation constant of the complex between target and ligand, obtained from inhibition or displacement. Take `C[C@H](NC(=O)[C@@H](c1cccnc1)N(C(=O)c1ccco1)c1ccc(-c2ccccc2)cc1)c1ccccc1`: in data set [7], the inhibition constant (Ki) is 101000 nM.
For `CC(C)(C)OC(=O)CC[C@H](NC(=O)CNC(=O)OC(C)(C)C)C(=O)COC(=O)c1c(Cl)cccc1Cl`, half-maximal inhibition in data set [2] (IC50) required 2990 nM.
`NC1CC1c1ccccc1` (configuration not stated) returned an IC50 in data set [8] of 8640 nM.
The half-life is the time in which the quantity being followed falls by half. A word on the bioavailability: it is dose-corrected exposure relative to a reference, in per cent. A lower bioavailability goes with poor availability. As to `CC1(C)[C@@H]2[C@@H](C(=O)N[C@H](C=O)C[C@@H]3CCNC3=O)N(C(=O)COc3ccc(OC(F)(F)F)cc3)C[C@@H]21`, the half-life in data set [9] was 4.53 h. Besides, in data set [10], the bioavailability was determined as 78%. For the same compound, the apparent clearance CL/F in data set [11] was determined as 22.7 mL/min/kg.
`O=C[C@H](C[C@@H]1CCNC1=O)NC(=O)[C@H](Cc1ccccc1)NC(=O)c1cc2ccccc2[nH]1`: the IC50 in data set [12] was found to be 30 nM.
As to `O=C(Sc1ncccn1)c1cc2ccccc2[nH]1`, the half-inhibitory concentration (IC50) in data set [13] is 61 nM; in data set [14], 302 nM.
With `CC(C)C[C@H](NC(=O)[C@@H](NC(=O)[C@H](C)NC(=O)C1CCCC1)C(C)C)C(=O)N[C@H](/C=C/C(=O)OCc1ccccc1)C[C@@H]1CCNC1=O`, in the data set with SARS-CoV-2 [15], the concentration for a half-maximal effect (EC50) is 16800 nM.
Consider `COC(=O)CCC(CC(=O)[C@H](CC(=O)OC)NC(=O)OCc1ccccc1)C(=O)NC(C(=O)NC(CC(=O)OC)C(=O)CF)C(C)C` (some centres not stated), for which the half-inhibitory concentration (IC50) in [16] came out at 6810 nM.
One may read the clearance as the volume of plasma or blood freed of the substance per unit of time. `O=C[C@H](C[C@@H]1CCNC1=O)NC(=O)[C@@H]1[C@H]2CCC[C@H]2CN1C(=O)COc1ccc(Cl)cc1Cl` showed a clearance in data set [17] of 17.1 mL/min/kg. Moreover, in [10], the bioavailability came out at 76.2%. Moreover, the half-life in [18] is 3.88 h.
`O=C(Oc1cncc(Cl)c1)c1cccs1`: in [19], half-maximal inhibition (IC50) was put at 80 nM.
For `Cn1sc(=O)n(Cc2ccccc2)c1=O`, in the data set on SARS-CoV-2 [20], the IC50 worked out at 670 nM.
On to `CC(C)(C)NC(=O)N[C@H](C(=O)N1C[C@H]2[C@@H]([C@H]1C(=O)NC(CC1CCC1)C(=O)C(N)=O)C2(C)C)C(C)(C)C` (some centres not stated) [BOCEPREVIR], for which half-maximal inhibition in the data set on SARS-CoV-2 [21] (IC50) was put at 4130 nM.
`CC(C)(C)c1ccc(N(C(=O)CCl)C(C(=O)NC2CCCCC2)c2cccnc2)cc1` (configuration not stated): in data set [22], half-maximal inhibition (IC50) was put at 410 nM.
On to `CCOC(=O)[C@@H]1O[C@H]1C(=O)N(CCC(N)=O)NC(=O)[C@H](Cc1ccccc1)NC(=O)[C@H](CC(C)C)NC(=O)OCc1ccccc1`, for which, in [2], half-maximal inhibition (IC50) was put at 960 nM.
